Test results taken from PubChem BioAssay (NCI).
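Exposure lasted 48 hours, with cells grown in 96-well plates and compounds tested at five concentrations. At the GI50, growth is halved. TGI marks complete inhibition of growth.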

Experiments:
Assay in all cases: NCI anticancer screen, dose series, 48 h
[1] = system: OVCAR-5 ovarian
[2] = system: ACHN renal
[3] = system: MCF7 breast
[4] = system: SF-539 CNS
[5] = system: RXF 393 renal
[6] = system: DU-145 prostate
[7] = system: UACC-257 melanoma
[8] = system: SK-MEL-5 melanoma
[9] = system: MOLT-4 leukemia
[10] = system: HL-60(TB) leukemia

Row | Compound | GI50 [1] | TGI [1] | GI50 [2] | TGI [2] | GI50 [3] | TGI [3] | GI50 [4] | TGI [4] | GI50 [5] | TGI [5] | GI50 [6] | TGI [6] | GI50 [7] | TGI [7] | GI50 [8] | TGI [8] | GI50 [9] | TGI [9] | TGI [10]
1 | CN1CCOCCOCCOc2ccccc2NC(=O)c2nc(cnc2N)-c2ccc(cc2)S1(=O)=O | > 100 µM | > 100 µM | 0.0504 µM | > 100 µM | 0.0397 µM | > 100 µM | 0.0371 µM | > 100 µM | 1.59 µM | 21.9 µM | – | – | – | – | – | – | – | – | –
2 | O=C(Nc1ccc(Br)cc1)Nc1cccc(Br)c1 | > 100 µM | > 100 µM | – | – | 3.2 µM | > 100 µM | 15.3 µM | > 100 µM | > 100 µM | > 100 µM | 5.8 µM | > 100 µM | > 100 µM | > 100 µM | > 100 µM | > 100 µM | 5.38 µM | > 100 µM | –
3 | Cc1ccc(NC(=O)c2ccc(NC3=C(Cl)C(=O)N(Cc4ccccc4)C3=O)cc2)cc1Cl | 0.774 µM | 10.2 µM | 12.6 µM | 25.1 µM | 3.3 µM | 15.4 µM | 2.47 µM | 16.4 µM | – | – | 0.624 µM | 7.73 µM | 13.3 µM | 35.8 µM | 12 µM | 24.3 µM | 2.35 µM | 15.1 µM | 14.6 µM
4 | CC1(C)CC(O)CC(C)(C)N1.CC1(C)CC(O)CC(C)(C)N1.CC1(C)CC(O)CC(C)(C)N1.CC1(C)CC(O)CC(C)(C)N1.Cl.[Ti] | > 100 µM | > 100 µM | > 100 µM | > 100 µM | – | – | > 100 µM | > 100 µM | > 100 µM | > 100 µM | – | – | > 100 µM | > 100 µM | > 100 µM | > 100 µM | > 100 µM | > 100 µM | –
5 | Nc1c(C(=O)Nc2ccccc2O)[n+]([O-])c2ccccc2[n+]1[O-] | – | > 100 µM | – | > 100 µM | – | – | – | > 100 µM | – | – | – | – | – | 44.6 µM | – | 28.3 µM | – | > 100 µM | > 100 µM
6 | CCOC(=O)[C@@H]1C[C@@H]1c1ccc(O)c(O)c1 | – | > 100 µM | – | > 100 µM | – | 35.2 µM | – | 49.3 µM | – | 54 µM | – | > 100 µM | – | > 100 µM | – | 27.5 µM | – | 22.5 µM | –
7 | CC(C)=CC(=O)CC(=O)C(=O)NCCNC(=O)C(=O)CC(=O)C=C(C)C | – | > 50 µM | – | > 50 µM | – | – | – | > 50 µM | – | > 50 µM | – | – | – | > 50 µM | – | – | – | – | –
8 | O=C(Nc1ccc(Cl)c(Cl)c1)C1C(=O)N(c2ccc(Cl)c(Cl)c2)C(=O)/C1=N\O (stereo not given) | – | > 100 µM | – | > 100 µM | – | – | – | > 100 µM | – | – | – | – | – | > 100 µM | – | > 100 µM | – | > 100 µM | –
9 | Cc1cc(OC(=O)c2c(C)cc(OC(=O)c3c(C)cc(O)cc3O)cc2O)cc(O)c1C(=O)O | – | > 100 µM | – | > 100 µM | – | – | – | > 100 µM | – | > 100 µM | – | – | – | > 100 µM | – | > 100 µM | – | > 100 µM | > 100 µM
10 | CC1=C(C(=O)CC(=O)C(=O)Nc2ccccc2C)Sc2ccccc2N1 | – | > 100 µM | – | > 100 µM | – | – | – | > 100 µM | – | > 100 µM | – | – | – | > 100 µM | – | > 100 µM | – | > 100 µM | > 100 µM
